As a reminder, the melting point is the temperature of the solid-liquid transition.

`COc1ccc2ccc(=O)[nH]c2c1` returned a melting point of 190 °C.
Next, `COc1c([N+](=O)[O-])ccc(N)c1Cl`: 118 to 123 °C; `COc1cccc(NC(=O)NC2N=C(c3ccccc3)c3ccccc3N(CCN(C)C)C2=O)c1` (stereo unspecified): 213 to 215 °C; `N#CC1=C(c2ccc(Cl)cc2)NC(C(F)(F)F)C1` (stereo unspecified): 158 to 160 °C.
The figure for `O=C1Nc2ccc(C(F)(F)F)cc2C1c1nc(Cl)nc2nn(C3CCCC3)cc12` (stereo unspecified) is > 300 °C.
Molecule `CCOc1cc(OCCCc2cn(-c3cc(C(F)(F)F)ccn3)nc2OCC)ccc1CCC(=O)O` yielded a melting point of 119 to 120 °C.
The figure for `Cc1nc(NC(=O)NS(=O)(=O)c2ccccc2C(=O)O)nc2c1CCC2` is 183 to 184 °C; for `O=S(=O)(Nc1ccc2c(OCc3cccc(-c4ccc(F)cc4)c3)cccc2c1)C(F)(F)F` it is 110 to 112 °C.
As to `C=C(C)C(=O)Nc1cccc(OC(=O)Nc2cccc3ccccc23)c1`, the melting point lay in the range of 195 to 196 °C.
Next, `CC(=O)N(C)c1cccc(C(=O)C=CN(C)C)c1`: 146 to 148 °C; `CCOC(=O)C1=C(N)NC(N)=C(C(=O)OCC)C1c1ccccc1F`: 128 to 130 °C; `COc1ccc(C2=CS(=O)CCC2)cc1OC1CCCC1` (stereo unspecified): 96 to 98 °C.
The figure for `Cc1nc(Cn2c(=O)sc3cc(F)c(N)cc32)no1` is 156 to 157 °C; for `CC1=CC(=C(C#N)C#N)C=C(C)N1` it is 158 to 159 °C.
The figure for `COc1cc(-c2ccccc2F)c(Cl)cc1C(=O)N1Cc2cccn2Cc2ccccc21` is 192 to 194 °C.
Take `CC(C)(C)OC(=O)N1CC2CN(c3nc(C4=NOC(c5c(F)cccc5F)C4)cs3)CC2C1` (stereo unspecified): the melting point was in the range of 78.9 to 80.2 °C.
In the case of `COc1nc(C(=O)NS(=O)(=O)c2c(Cl)cccc2Cl)cs1`, the melting point was 162 to 165 °C.
The figure for `COC(=O)c1ccc(Cl)cc1N(C)S(C)(=O)=O` is 73 to 75 °C.
The figure for `CCCCCC(C)(C)NC(=O)CCl` is 36 to 37 °C.
Next, `C(=Cc1ccccc1)Cn1ccnc1`: 37 to 38 °C; `O=c1c2ccc([N+](=O)[O-])cc2nc(C(S)c2ncnc3[nH]cnc23)n1-c1ccccc1Cl` (stereo unspecified): 218 °C; `c1cc(-c2ccc(OCCCN3CCCCC3)cc2)ccc1CN1CCCCC1`: 90 °C.
As for `CCCN1C(=O)C2(c3ccccc3)CC(c3ccc([N+](=O)[O-])cc3)(C2)C1=O`, the melting point was in the range of 144 to 146 °C.
Next, `COC(=O)c1nc(-c2ccc(Cl)c(OC)c2F)cc(NC(C)=O)c1OCc1ccccc1`: 115 to 120 °C; `O=C(NC(CO)(CO)CO)c1ccc(C(=O)NC(CO)(CO)CO)cc1`: 188 to 190 °C.
The figure for `O=S1(=O)CCCc2[nH]c3ccccc3c2CC1` is 207 to 208 °C.
Next, `Cc1nc(N2CCN(Cc3nc(C)n(-c4ccccc4)n3)C2=O)sc1C(=O)NCc1ccccc1`: 139 to 141 °C; `COc1ccc(OC)c(-c2cn(N=Cc3ccccc3)c(N)n2)c1`: 180 to 181 °C; `CC(=O)N1CCC(C(=O)N2CC[C@@H](N(C)C(=O)c3ccc(C(F)(F)F)cc3)[C@H](c3ccc(Cl)c(Cl)c3)C2)CC1`: 122 °C.
Consider `CC(C)CN1C(=O)[C@@H](CC(=O)O)N[C@H](c2ccccc2Cl)c2cc(Cl)ccc21`, for which the melting point fell in the range of 184 to 188 °C.
For the molecule `c1cc2cc([C@@H]3CO3)ccc2s1`, the melting point fell in the range of 72 to 76 °C.
Next, `CC(C)C(=C=O)NC(=O)Nc1ccc([N+](=O)[O-])cc1O`: 168 to 169 °C.
Next, `COc1cc2c(cc1OCc1ccccc1)CCN(Cc1ccccc1)C2`: 97 to 98 °C.
The figure for `Cn1ncnc1COc1nc2c(cc1-c1ccccc1)nnn2-c1ccccc1` is 153 to 156 °C; for `O=C(O)C1=Cc2cc(-c3ccc(Cl)s3)ccc2OC1C(F)(F)F` (stereo unspecified) it is 205 to 206 °C.
On to `CO/C=C(/C(=O)OC)c1ccccc1C=CCO`, for which the melting point was 78 to 80 °C.
The figure for `COc1cc2c(-c3cc4c(Cl)ccnc4[nH]3)cn(CCN3CCC(CCO)CC3)c2cc1OC` is 200 °C; for `COc1ccc(CCC(C)(C)NCC(O)c2cccc(Cl)c2)cc1` (stereo unspecified) it is 50 to 53 °C; for `CC(C=O)C1CCC2C3CCC4CCCCC4(C)C3CCC12C` (stereo unspecified) it is 248 to 252 °C.
Next, `CCCc1nc2c(C)ccnc2n1Cc1ccc2[nH]ccc2c1`: 110 to 112 °C; `CCCCC(=Nc1sccc1C(=O)NCCC)OC`: 68 to 70 °C.
`O=Cc1cc2c(cc1C=O)[C@H](CO)OC2=O` showed a melting point of 144 to 145 °C.
Consider `O=C1c2cc3ccccc3c(-c3ccccc3)c2C(=O)N1C1CC1`, for which the melting point was 198 °C.
Next, `NS(=O)(=O)c1cccc(-c2cccc(-c3nc(-c4ccc(C(F)(F)F)c(OCC(F)(F)F)c4)cc(C(F)(F)F)n3)c2)c1`: 188 °C; `CCC(CC)c1nnc(S)n(N)c1=O`: 162 to 164 °C.
Next, `Cn1c(COc2ccc(CC3SC(=O)NC3=O)cc2)nc2ccc(Oc3ccc4cccc(NC(=O)NCc5ccccc5)c4c3)cc21` (stereo unspecified): 220 to 222 °C.
Next, `COC(=O)C=Cc1ccc(C=CC(=O)OC)cc1`: 163 to 167 °C; `CC(C)[C@H](COc1ccccc1)Nc1nc(Cl)nc2c1ncn2[C@@H]1O[C@H](CO)[C@@H](O)[C@H]1O`: 95 to 100 °C.
For `CC1(C)N=C(c2ccccc2)CC1c1ccccn1` (stereo unspecified), the melting point is 101 to 102 °C.
Next, `O=c1cc(N2CCCCC2)sn1CCc1ccccc1`: 106 to 108 °C.
Next, `Nc1cc2c3c(cccc3c1Cl)C(=O)N(O)C2=O`: 271 to 275 °C; `CS(=O)(=O)Nc1ccc(CCCOCCCCCCNCC(O)c2cc(O)cc(O)c2)cc1` (stereo unspecified): 66 to 69 °C.
The figure for `C=C(NC(C)=O)c1ccc(F)cn1` is 61 to 62.2 °C; for `CN(C)c1ccc(C(c2ccc(N(C)C)cc2)c2ccc(N(C)C)cc2C(=O)O)cc1` it is 210 to 212 °C.
In the case of `Cn1cnc2c1c(=O)n(CCCCCCOc1ccc(Cl)cc1)c(=O)n2C`, the melting point lay within 97 to 98 °C.
The figure for `OCCc1nccn1CCCc1ccc(OCc2coc(/C=C/c3c(F)cccc3F)n2)cc1` is 106 to 107 °C; for `CCOC(=O)C(=CNc1ccc2nccnc2c1)C(=O)OCC` it is 112 to 114 °C; for `CCOC(=O)c1c(C(F)(F)C(F)(F)F)[nH]c(C(F)(F)C(F)(F)F)c1C(=O)OCC` it is 64.5 to 65.5 °C.
As to `Cc1ccc(-c2[nH]c(-c3ccccc3)nc2C(=O)Nc2nc3ccccc3s2)cc1`, the melting point was 269 to 270 °C.
The figure for `NC(=O)c1ccc(OCCCC(=O)O)cc1` is 162 to 164 °C; for `O=C(c1ccc(OC(F)(F)F)cc1)c1sccc1O` it is 67 to 70 °C.
The molecule `CC(C)Cc1cc2cc(O)ccc2c(Oc2ccc(/C=C/C(=O)O)cc2)c1-c1ccccc1` had a melting point of 126 to 128 °C.
Next, `COc1ccc2[nH]cc(C3=CCC(N4CCN(c5cccc(Cl)n5)CC4)CC3)c2c1` (stereo unspecified): 210 to 213 °C.
Next, `ClCc1cn2cc(Cl)ccc2n1`: 123 to 124 °C; `C#CCn1c(-c2ccccc2)nc(C#C)c(CC)c1=O`: 134 to 136 °C.
Next, `CCOC(=O)c1cn(CC)c2nc(Cl)c(F)cc2c1=O`: 150 to 160 °C; `Cc1cc(C)n(CCOc2cc3c(cc2C)OC2(CC(C)(C)c4cc(O)c(C)cc4O2)CC3(C)C)n1` (stereo unspecified): 223 to 225 °C; `CSc1ccc(C=CC(=O)c2ccc(Br)cc2)cc1`: 161 °C.
`O=c1[nH]c2ccccc2c(=O)cc1NCCO` came in with a melting point of 207 °C.
Next, `COc1ccc2c(c1)c(-c1cc3c(C(=O)O)ccnc3[nH]1)cn2C`: > 300 °C; `CCn1c2ccccc2c2c3c(c(-c4ccccc4Cl)cc21)C(=O)NC3O` (stereo unspecified): 225 to 228 °C; `O=C(O)C(Cc1ccccc1)NC(=S)Cc1cccc2ccccc12` (stereo unspecified): 130 to 132 °C.
Next, `O=C(O)c1ccccc1NC1CCOC1=O` (stereo unspecified): 197 to 198 °C.
`CCc1cccc(Cl)c1C(=O)N[C@@H](Cc1ccc(-c2c(C)n(C)c(=O)n(C)c2=O)cc1)C(=O)O` had a melting point of 187 to 190 °C.
The figure for `CC1(C)CNc2nc(-c3ccncc3)c(F)c(=O)n2C1` is 190 to 192 °C.
The figure for `CCCn1c(COC)nc2c(N)nc3ccc(OCCCN4CCOCC4)cc3c21` is 193 to 196 °C; for `CON=C(Nc1nc(OC)nc(OC)n1)NS(=O)(=O)c1ccccc1-c1ccccc1` it is 189 to 190 °C.
The figure for `CC(C)(C)c1ncn(Sc2ncc([N+](=O)[O-])s2)n1` is 219 to 221 °C; for `CCOc1nc(C)nc(N2CCc3ccccc3CC2)c1[N+](=O)[O-]` it is 145 to 147 °C.
Take `O=C(O)CCC(=O)c1cc2c(s1)CCc1ccccc1C2`: the melting point is 202 to 203 °C.
`CN(C)c1cc(C(O)c2ccccc2)c([N+](=O)[O-])cc1[N+](=O)[O-]` (stereo unspecified): the melting point lay in the range of 147 to 150 °C.
The figure for `COc1ccc(CCN(C)CCOc2ccc(NC(=O)c3cccc4c(=O)c5cc(F)ccc5sc34)cc2)cc1OC` is 145 °C; for `Cn1c(Cl)c(C=O)c2ccc(Cl)cc21` it is 166 to 168 °C; for `COc1ccc2c(c1)CCCCN2C(=O)Nc1cccc(C(F)(F)F)c1` it is 108 °C.
The figure for `Cc1nc2cnc3ccccc3c2s1` is 95.5 to 97.5 °C.
The figure for `O=C(Oc1ccccc1)C(I)=C(I)I` is 83 to 84.5 °C; for `CC(C)OC(=O)N=C1SCS1` it is 72 to 73 °C.
Turning to `COc1cc(C=C2C(=O)NC(=O)N2C)ccc1O`, the melting point lay within 197 to 198 °C.
The figure for `COC(=O)COc1cccc2c(O)c(C(C)=O)ccc12` is 130 to 135 °C; for `CC(C)(C)C1CC(=O)CC(C(C)(C)C)N1` (stereo unspecified) it is 55.4 °C.
The figure for `CCCNC(=O)c1ccc2c(c1)N(C(C)CN1CCCCCC1)c1ccccc1S2` (racemic) is 113 °C.

Source of the values: a melting point compilation (Tetko et al.; mined from patent text by program, amines drawn as free bases though some values may be those of a salt).
